Data: patent US20090264415A2 (priority 2004, published 2009)
pIC50: −log10 of the molar value. Read-outs that look alike come from different tables or passages of the source. Each block holds one molecule with its values, some of them ahead of it.

What was measured:
[1] = tested on: peripheral blood mononuclear cells (PBMC) stimulated with allogeneic PBMC or EBV-transformed human B cells (RPMI1788); assay: Mixed lymphocyte reaction (MLR) assay; format: cell-based; conditions: 50% suppression of the MLR, [3H]-thymidine incorporation, read-out: MLR
Summary of the method: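 Responder PBMC co-cultured in triplicate with 30 Gy-irradiated allogeneic PBMC or RPMI1788 B cells plus compound (DMSO stock 10 mM, diluted in medium). After 5 days at 37° C, 1 μCi [3H]-thymidine added for 16 h more; incorporated cpm counted and proliferation inhibition calculated.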

[2] = tested on: production of human TNF-α by PBMC in response to LPS; assay: TNF-α assay (LPS-stimulated PBMC, sandwich ELISA); format: cell-based; conditions: LPS 1 μg/ml, 72 hours, read-out: TNF α
Summary of the method: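 Human PBMC isolated from heparinised blood by density gradient (10^6 cells/ml) stimulated with LPS at 1 μg/ml final, with test compound at 0.1, 1 and 10 μM, 72 h at 37° C, 5% CO2. Supernatant TNF-α quantified by sandwich ELISA against recombinant standard curve; % suppression calculated.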

[3] = tested on: phosphodiesterase-4 (PDE-4) extract from U937 cells; assay: Phosphodiesterase-4 inhibiting activity (isotopic two-step method); format: biochemical; conditions: for pIC50: 1.01 μM [3H]cAMP+cAMP

Compound: NC(=O)c1nc(Cl)ccc1N
- melting point: 176 to 177 °C

Compound: Nc1nc2ccc(Cl)nc2c(=O)[nH]1
- melting point: > 330 °C

Compound: CCCOc1nc(NC(C)=O)nc2ccc(Cl)nc12
- melting point: 191 °C

Compound: CCC(C)Oc1nc(NC(C)=O)nc2ccc(Cl)nc12 (stereo not drawn)
- melting point: 143 to 144 °C

Compound: CCCCCOc1nc(NC(C)=O)nc2ccc(Cl)nc12
- melting point: 174 °C

Compound: COc1ccc(-c2ccc3ncnc(N4CCN(C(=O)Nc5cccc(C)c5)CC4)c3n2)cc1OC [Example 8]
- pIC50 ([1]; Homo sapiens, RPMI-1788): 8.03
- pIC50 ([2]; Homo sapiens, PBMC): 7.15
- pIC50 [3]: 7.80

Compound: COc1ccc(-c2ccc3nc(C)nc(N4CCN(C(=O)Nc5cccc(C)c5)CC4)c3n2)cc1OC [Example 11]
- pIC50 [1]: 7.59
- pIC50 [2]: 6.30
- PDE-4 (% inhibition) ([3]; @ 0.5 μM): 69% @ 0.5 μM

Compound: COc1ccc(-c2ccc3nc(N)nc(OC(C)C)c3n2)cc1OC [Example 24, 2-amino-4-isopropoxy-6-(3,4-dimethoxyphenyl)pyrido[3,2-d]pyrimidine]
- pIC50 ([1]; Homo sapiens, RPMI-1788): 7.18
- pIC50 ([2]; Homo sapiens, PBMC): 6.30
- PDE-4 (% inhibition) ([3]; @ 0.5 μM): 29% @ 0.5 μM

Compound: COc1ccc(-c2ccc3nc(N)nc(N4CCN(c5ccc(F)cc5)CC4)c3n2)cc1OC [Example 43, 2-amino-4-(4-fluorophenyl-piperazin-1-yl)-6-(3,4-dimethoxyphenyl)-pyrido[3,2-d]pyrimidine]
- pIC50 [1]: 6.52
- pIC50 [2]: 7.05
- PDE-4 (% inhibition) ([3]; @ 0.09 μM): 61% @ 0.09 μM

Compound: COc1ccc(-c2ccc3nc(N)nc(N4CCN(c5ccccn5)CC4)c3n2)cc1OC [Example 47, 2-amino-4-(2-pyridyl-piperazin-1-yl)-6-(3,4-dimethoxyphenyl)-pyrido[3,2-d]pyrimidine]
- pIC50 [1]: 6.52
- pIC50 [2]: 7.30
- PDE-4 (% inhibition) ([3]; @ 0.05 μM): 64% @ 0.05 μM

Compound: COc1ccc(-c2ccc3nc(N)nc(N4CCN(CC(=O)Nc5nccs5)CC4)c3n2)cc1OC [Example 48, 2-amino-4-[2-(piperazin-1-yl)-acetic acid N-(2-thiazolyl)-amide]-6-(3,4-dimethoxyphenyl)-pyrido[3,2-d]pyrimidine]
- pIC50 [1]: 7.22
- pIC50 [2]: 7.22
- PDE-4 (% inhibition) ([3]; @ 0.06 μM): 59% @ 0.06 μM

Compound: COc1ccc(-c2ccc3nc(N)nc(N4CCN(C(C)=O)CC4)c3n2)cc1OC [Example 49, 2-amino-4-(N-acetyl-piperazinyl)-6-(3,4-dimethoxyphenyl)-pyrido[3,2-d]pyrimidine]
- pIC50 [1]: 7.15
- pIC50 [2]: 7.40
- PDE-4 (% inhibition) ([3]; @ 0.04 μM): 48% @ 0.04 μM

Compound: COc1ccc(-c2ccc3nc(N)nc(N4CCN(C(=O)Nc5ccsc5)CC4)c3n2)cc1OC [Example 54, 2-amino-4(N-3-thienylcarbamoyl-piperazin-1-yl)-6-(3,4-dimethoxyphenyl)-pyrido[3,2-d]pyrimidine]
- pIC50 [1]: 8.70
- pIC50 [2]: 7.30
- PDE-4 (% inhibition) ([3]; @ 0.1 μM): 62% @ 0.1 μM

Compound: COc1ccc(-c2ccc3nc(N)nc(N4CCN(C(=O)Nc5ccc(F)cc5)CC4)c3n2)cc1OC [Example 56, 2-amino-4(N-4-fluoro-phenyl-carbamoyl-piperazin-1-yl)-6-(3,4-dimethoxy-phenyl)-pyrido[3,2-d]pyrimidine]
- pIC50 [1]: 8.52
- pIC50 [2]: 7.15
- PDE-4 (% inhibition) ([3]; @ 0.1 μM): 74% @ 0.1 μM

Compound: COc1ccc(-c2ccc3nc(N)nc(N4CCN(C(=O)Nc5ccc(F)c(Cl)c5)CC4)c3n2)cc1OC [Example 57, 2-amino-4(N-3-chloro-4-fluoro-phenyl-carbamoyl-piperazin-1-yl)-6-(3,4-dimethoxyphenyl)-pyrido[3,2-d]pyrimidine]
- pIC50 [1]: 8.40
- pIC50 [2]: 6.52
- PDE-4 (% inhibition) ([3]; @ 0.1 μM): 74% @ 0.1 μM

Compound: COc1ccc(-c2ccc3nc(N)nc(N4CCN(C(=O)Nc5cccc(Cl)c5)CC4)c3n2)cc1OC [Example 58, 2-amino-4(N-3-chloro-phenyl-carbamoyl-piperazin-1-yl)-6-(3,4-dimethoxy-phenyl)-pyrido[3,2-d]pyrimidine]
- pIC50 [1]: 9.40
- pIC50 [2]: 6.59
- PDE-4 (% inhibition) ([3]; @ 0.1 μM): 75% @ 0.1 μM

Compound: O=C(Nc1cccc(Cl)c1)N1CCN(c2ncnc3ccc(-c4ccc(Cl)c(Cl)c4)nc23)CC1 [Example 84]
- pIC50 [1]: 6.15
- PDE-4 (% inhibition) ([3]; @ 10 μM): 22% @ 10 μM

Compound: COc1ccc(-c2ccc3ncnc(N4CCN(C(=O)Nc5ccc(F)c(Cl)c5)CC4)c3n2)cc1OC [Example 108, 4-[(N-3-chloro-4-fluorophenylcarbamoyl)-piperazin-1-yl]-6-(3,4-dimethoxy-phenyl)-pyrido[3,2-d]pyrimidine]
- pIC50 [1]: 7.22
- pIC50 [2]: 6.70
- PDE-4 (% inhibition) ([3]; @ 0.2 μM): 59% @ 0.2 μM

Compound: COc1ccc(-c2ccc3ncnc(N4CCN(C(=O)Nc5cccs5)CC4)c3n2)cc1OC [Example 109]
- pIC50 [1]: 7.22
- pIC50 [2]: 6.89
- PDE-4 (% inhibition) ([3]; @ 0.09 μM): 58% @ 0.09 μM

Compound: COc1ccc(-c2ccc3ncnc(N4CCN(C(=O)COc5ccc(Cl)cc5)CC4)c3n2)cc1OC [Example 113, 4-[(N-4-chlorophenoxy-acetyl)-piperazin-1-yl]-6-(3,4-dimethoxyphenyl)-pyrido[3,2-d]pyrimidine]
- pIC50 [1]: 7.40
- pIC50 [2]: 6.52
- PDE-4 (% inhibition) ([3]; @ 0.4 μM): 77% @ 0.4 μM

Compound: COc1cc(-c2ccc3ncnc(N4CCN(C(=O)Nc5cccc(Cl)c5)CC4)c3n2)ccc1OC(C)C [Example 121]
- pIC50 [1]: 6.52
- PDE-4 (% inhibition) ([3]; @ 10 μM): 54% 10 μM

Compound: Nc1nc(N2CCN(C(=O)COc3ccc(Cl)cc3)CC2)c2nc(-c3ccc(F)cc3)ccc2n1 [Example 207, 2-amino-4-[(N-4-chloro-phenoxy-acetyl)-piperazin-1-yl]-6-(4-fluorophenyl)-pyrido[3,2-d]pyrimidine]
- pIC50 [1]: 7.52
- PDE-4 (% inhibition) ([3]; @ 10 μM): 34% @ 10 μM

Compound: COc1cc(-c2ccc3ncnc(N4CCN(C(=O)Nc5cccc(Cl)c5)CC4)c3n2)ccc1OCC1CC1 [Example 211, 4-[N-(3-chloro-phenylcarbamoyl)-piperazin-1-yl]-6-(3-methoxy-4-cyclopropylmethoxy-phenyl)-pyrido[3,2-d]pyrimidine]
- pIC50 [1]: 6.40
- PDE-4 (% inhibition) ([3]; @ 10 μM): 16% @ 10 μM

Compound: COc1ccc(-c2ccc3nc(N)nc(N4CCN(C(=O)Nc5cccc(Cl)c5)CC4)c3n2)cc1O [Example 212]
- pIC50 ([1]; Homo sapiens, RPMI-1788): 7.40
- pIC50 ([2]; Homo sapiens, PBMC): 6.05
- PDE-4 (% inhibition) ([3]; @ 0.9 μM): 43% @ 0.9 μM

Compound: CCOc1cc(-c2ccc3ncnc(N4CCN(C(=O)Nc5cccc(Cl)c5)CC4)c3n2)ccc1OC [Example 213, 4-[N-(3-chloro-phenylcarbamoyl)-piperazin-1-yl]-6-(3-ethoxy-4-methoxy-phenyl)-pyrido[3,2-d]pyrimidine]
- pIC50 ([1]; Homo sapiens, RPMI-1788): 7.24
- pIC50 ([2]; Homo sapiens, PBMC): 7.22
- PDE-4 (% inhibition) ([3]; @ 0.06 μM): 78% @ 0.06 μM

Compound: COc1ccc(-c2ccc3ncnc(N4CCN(C(=O)Nc5cccc(Cl)c5)CC4)c3n2)cc1OC(C)C [Example 214, 4-[N-(3-chloro-phenylcarbamoyl)-piperazin-1-yl]-6-(3-isopropoxy-4-methoxy-phenyl)-pyrido[3,2-d]pyrimidine]
- pIC50 ([1]; Homo sapiens, RPMI-1788): 7.30
- pIC50 ([2]; Homo sapiens, PBMC): 6.52
- PDE-4 (% inhibition) ([3]; @ 0.3 μM): 61% @ 0.3 μM

Compound: COc1ccc(-c2ccc3nc(N)nc(NCCNC(=O)Nc4cccc(C)c4)c3n2)cc1OC [Example 261, 2-amino-4-[(3-methylphenylcarbamoyl)-ethylenediamine-1-N-yl]-6-(3,4-dimethoxyphenyl)-pyrido[3,2-d]pyrimidine]
- pIC50 ([1]; Homo sapiens, RPMI-1788): 7.10
- pIC50 ([2]; Homo sapiens, PBMC): 6.10
- PDE-4 (% inhibition) ([3]; @ 10 μM): 86% @ 10 μM

Further lines, with some results ahead:

- melting point: 244 °C
Compound: CC(=O)Nc1nc(OC(C)C)c2nc(Cl)ccc2n1

- melting point: 168 °C
Compound: CC(=O)Nc1nc(OCC(C)C)c2nc(Cl)ccc2n1

- melting point: 182 °C
Compound: CCOc1nc(N)nc2ccc(-c3ccccc3F)nc12

- melting point: 174 °C
Compound: CCOc1nc(N)nc2ccc(-c3cccc(F)c3)nc12

- melting point: 188 to 189 °C
Compound: CCOc1nc(N)nc2ccc(-c3ccc(F)cc3)nc12

- melting point: 200 to 201 °C
Compound: CC(C)Oc1nc(N)nc2ccc(-c3cccc(F)c3)nc12

- melting point: 196 to 197 °C
Compound: CC(=O)Nc1nc(OC(C)C)c2nc(-c3ccc(F)cc3)ccc2n1

- melting point: 147 to 148 °C
Compound: CCCCOc1nc(N)nc2ccc(-c3ccccc3F)nc12

- melting point: 160 to 161 °C
Compound: CCCCOc1nc(N)nc2ccc(-c3cccc(F)c3)nc12

- melting point: 172 to 173 °C
Compound: CCCCOc1nc(N)nc2ccc(-c3ccc(F)cc3)nc12

- melting point: 165 °C
Compound: CC(C)COc1nc(N)nc2ccc(-c3ccccc3F)nc12

- melting point: 185 °C
Compound: CC(C)COc1nc(N)nc2ccc(-c3cccc(F)c3)nc12

- melting point: 196 °C
Compound: CC(C)COc1nc(N)nc2ccc(-c3ccc(F)cc3)nc12

- melting point: 159 °C
Compound: CCC(C)Oc1nc(N)nc2ccc(-c3ccccc3F)nc12 (stereo not drawn)

- melting point: 158 to 159 °C
Compound: CCC(C)Oc1nc(N)nc2ccc(-c3cccc(F)c3)nc12 (stereo not drawn)

- melting point: 136 to 137 °C
Compound: CCCCCOc1nc(N)nc2ccc(-c3ccccc3F)nc12

- melting point: 142 to 143 °C
Compound: CCCCCOc1nc(N)nc2ccc(-c3cccc(F)c3)nc12

- melting point: 200 to 202 °C
Compound: Nc1nc(OCc2ccccc2)c2nc(-c3ccccc3F)ccc2n1

- melting point: 199 to 200 °C
Compound: Nc1nc(OCc2ccccc2)c2nc(-c3cccc(F)c3)ccc2n1

- melting point: 225 °C
Compound: Nc1nc(OCc2ccccc2)c2nc(-c3ccc(F)cc3)ccc2n1

- pIC50 [3]: 6.60
Compound: CCOC(=O)C1CCN(c2nc(N)nc3ccc(-c4ccc(OC)c(OC)c4)nc23)CC1 [Example 26, 2-amino-4-[4-(ethoxycarbonyl)piperidin-1-yl]-6-(3,4-dimethoxyphenyl)pyrido[3,2-d]pyrimidine]
- pIC50 ([1]; Homo sapiens, RPMI-1788): 5.59
- pIC50 ([2]; Homo sapiens, PBMC): 7.22
